Test results published in the NIST ThermoML archive (doi:10.1021/acs.jced.6b00458).
Numbers after ± are expanded uncertainties.

Test: mn = molality of the nth substance listed, in mol/kg
Details: 100 kPa, Liquid, Vibrating tube method

## [Cl-].[Na+] [sodium chloride] + O
293.15 K, m1 = 0.1
  mass density: 1002.42 ± 0.5 kg/m3
293.15 K, m1 = 0.2
  mass density: 1006.57 ± 0.5 kg/m3
293.15 K, m1 = 0.3
  mass density: 1010.63 ± 0.5 kg/m3
293.15 K, m1 = 0.4
  mass density: 1014.73 ± 0.5 kg/m3
293.15 K, m1 = 0.5
  mass density: 1018.78 ± 0.5 kg/m3
293.15 K, m1 = 0.6
  mass density: 1022.6 ± 0.5 kg/m3
298.15 K, m1 = 0.1
  mass density: 1001.21 ± 0.5 kg/m3
298.15 K, m1 = 0.2
  mass density: 1005.31 ± 0.5 kg/m3
298.15 K, m1 = 0.3
  mass density: 1009.33 ± 0.5 kg/m3
298.15 K, m1 = 0.4
  mass density: 1013.38 ± 0.5 kg/m3
298.15 K, m1 = 0.6
  mass density: 1021.15 ± 0.5 kg/m3
303.15 K, m1 = 0.1
  mass density: 999.767 ± 0.5 kg/m3
303.15 K, m1 = 0.2
  mass density: 1003.83 ± 0.5 kg/m3
303.15 K, m1 = 0.3
  mass density: 1007.8 ± 0.5 kg/m3
303.15 K, m1 = 0.4
  mass density: 1011.82 ± 0.5 kg/m3
303.15 K, m1 = 0.5
  mass density: 1015.77 ± 0.5 kg/m3
308.15 K, m1 = 0.1
  mass density: 998.116 ± 0.5 kg/m3
308.15 K, m1 = 0.2
  mass density: 1002.14 ± 0.5 kg/m3
308.15 K, m1 = 0.3
  mass density: 1006.08 ± 0.5 kg/m3
308.15 K, m1 = 0.4
  mass density: 1010.07 ± 0.5 kg/m3
308.15 K, m1 = 0.6
  mass density: 1017.71 ± 0.5 kg/m3
313.15 K, m1 = 0.1
  mass density: 996.272 ± 0.5 kg/m3
313.15 K, m1 = 0.2
  mass density: 1000.27 ± 0.5 kg/m3
313.15 K, m1 = 0.3
  mass density: 1004.18 ± 0.5 kg/m3
313.15 K, m1 = 0.4
  mass density: 1008.14 ± 0.5 kg/m3
313.15 K, m1 = 0.5
  mass density: 1012.04 ± 0.5 kg/m3
313.15 K, m1 = 0.6
  mass density: 1015.73 ± 0.5 kg/m3
